# From the supplement of paper PMC10307832
# Compound: O=c1ncccn1[C@@H]1O[C@H](CO)[C@@H](O)[C@H]1O [Zebularine] + Nc1ncn([C@H]2C[C@H](O)[C@@H](CO)O2)c(=O)n1 [Decitabine] (partner 2 µM)
# Experiment: relative viability (nuclei count vs DMSO), 5 days (fraction); higher = more cells survive
# Details: first compound 1 µM
# Method in brief: (§1)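 The day after seeding in 1536-well plates, lung cancer cell lines were treated by pin tool with a single drug, or with a fixed anchor-drug dose together with five library-drug doses (not always all listed) in √10 steps. After 5 days, a combined fix-and-stain solution (final 0.05% Triton X-100, 1% formaldehyde, 1 ug/ml Hoechst) was added. Nuclei counted on 4× images gave relative viability as treated counts over vehicle counts, reported as the median of duplicate plates.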
row,Cell Line,relative viability
1,BEN,0.821
2,HARA,0.595
3,HCC-78,0.732
4,NCI-H322M,0.712
5,LCLC-97TM1,0.211
6,A-427,0.693
7,NCI-H441,0.246
8,NCI-H1734,0.445
9,NCI-H460,0.549
10,NCI-H2347,0.658
11,NCI-H1395,0.678
12,201T,0.872
13,NCI-H1915,0.284
14,HCC-827,0.42
15,LXF-289,0.362
16,NCI-H23,0.344
17,NCI-H647,0.391
18,NCI-H1651,0.714
19,EPLC-272H,0.404
20,NCI-H1792,0.62
21,NCI-H1355,0.34
22,NCI-H3122,0.507
23,NCI-H1437,0.617
24,NCI-H1755,0.713
25,HCC-15,0.683
26,NCI-H1793,0.471
27,PC-14,0.193
28,EKVX,0.576
29,LC-2-ad,0.83
30,NCI-H1944,0.455

# Same assay, conditions: first compound 3.162 µM
row,Cell Line,relative viability
1,HOP-62,0.205
2,HCC-44,0.929
3,LU99A,0.813
4,BEN,0.686
5,HARA,0.603
6,HCC-78,0.643
7,NCI-H322M,0.636
8,LCLC-97TM1,0.202
9,A-427,0.534
10,NCI-H441,0.237
11,NCI-H1734,0.828
12,NCI-H460,0.504
13,NCI-H2347,0.598
14,NCI-H1395,0.755
15,201T,0.883
16,NCI-H1915,0.278

row,Cell Line,relative viability
1,HCC-827,0.353
2,LXF-289,0.331
3,NCI-H23,0.342
4,NCI-H647,0.369
5,NCI-H1651,0.56
6,NCI-H1792,0.531
7,NCI-H1355,0.329
8,NCI-H3122,0.475
9,NCI-H1437,0.639
10,NCI-H1755,0.715
11,HCC-15,0.575
12,NCI-H1793,0.523
13,PC-14,0.135
14,EKVX,0.378
15,LC-2-ad,0.796
16,NCI-H1944,0.424

# Same assay, conditions: first compound 10 µM
row,Cell Line,relative viability
1,HOP-62,0.209
2,HCC-44,0.946
3,LU99A,0.61
4,BEN,0.545
5,HARA,0.433
6,NCI-H322M,0.614
7,LCLC-97TM1,0.183
8,A-427,0.524
9,NCI-H441,0.266
10,NCI-H1734,0.421
11,NCI-H460,0.236
12,NCI-H2347,0.544
13,NCI-H1395,0.82
14,201T,0.76
15,NCI-H1915,0.261
16,HCC-827,0.259
17,LXF-289,0.382
18,NCI-H647,0.187
19,NCI-H1651,0.58
20,EPLC-272H,0.398
21,NCI-H1792,0.292
22,NCI-H1355,0.334
23,NCI-H3122,0.411
24,NCI-H1437,0.464
25,NCI-H1755,0.703
26,HCC-15,0.36
27,NCI-H1793,0.292
28,PC-14,0.117
29,LC-2-ad,0.554
30,NCI-H1944,0.449

# Same assay, conditions: first compound 31.62 µM
row,Cell Line,relative viability
1,HOP-62,0.164
2,HCC-44,1.03
3,LU99A,0.392
4,BEN,0.495
5,HARA,0.554
6,HCC-78,0.663
7,NCI-H322M,0.696
8,LCLC-97TM1,0.176
9,A-427,0.455
10,NCI-H441,0.184
11,NCI-H1734,0.516
12,NCI-H460,0.467
13,NCI-H2347,0.575
14,NCI-H1395,0.709
15,201T,0.894
16,NCI-H1915,0.265
17,HCC-827,0.259

row,Cell Line,relative viability
1,LXF-289,0.345
2,NCI-H23,0.303
3,NCI-H647,0.144
4,NCI-H1651,0.522
5,EPLC-272H,0.364
6,NCI-H1792,0.292
7,NCI-H1355,0.314
8,NCI-H3122,0.411
9,NCI-H1437,0.686
10,NCI-H1755,0.786
11,HCC-15,0.684
12,NCI-H1793,0.328
13,PC-14,0.0981
14,EKVX,0.304
15,LC-2-ad,0.72
16,NCI-H1944,0.461

# Same assay, conditions: first compound 100 µM
row,Cell Line,relative viability
1,HOP-62,0.178
2,HCC-44,0.585
3,LU99A,0.215
4,BEN,0.371
5,HARA,0.459
6,HCC-78,0.449
7,NCI-H322M,0.675
8,LCLC-97TM1,0.117
9,A-427,0.302
10,NCI-H441,0.16
11,NCI-H1734,0.295
12,NCI-H460,0.112
13,NCI-H2347,0.371
14,NCI-H1395,0.623
15,201T,0.844
16,NCI-H1915,0.282
17,HCC-827,0.346

row,Cell Line,relative viability
1,LXF-289,0.24
2,NCI-H23,0.335
3,NCI-H647,0.14
4,NCI-H1651,0.347
5,EPLC-272H,0.371
6,NCI-H1792,0.254
7,NCI-H1355,0.28
8,NCI-H3122,0.532
9,NCI-H1437,0.528
10,NCI-H1755,0.615
11,HCC-15,0.487
12,NCI-H1793,0.218
13,PC-14,0.0826
14,EKVX,0.339
15,LC-2-ad,0.329
16,NCI-H1944,0.395

# Compound: CC(C)CCN1c2nc(Nc3cc(F)c(O)c(F)c3)ncc2N(C)C(=O)C1C [BI-D1870] + O=C(c1cc(Cc2n[nH]c(=O)c3ccccc23)ccc1F)N1CCN(C(=O)C2CC2)CC1 [Olaparib] (partner 8 µM)
# Experiment: as above
# Details: first compound 0.04 µM
# Method in brief: as §1
row,Cell Line,relative viability
1,HOP-62,0.545
2,HCC-44,1
3,LU99A,0.274
